“And” between values parts separate entries of the source, which are not always exact repeats. Equal entries are not always repeated.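 1) Cells in 96-well plates. 2) Compound, 48 h, 5 concentrations. 3) Linear interpolation between surrounding doses. 4) Unreached endpoint = highest concentration. GI50 is the concentration that inhibits growth by half. TGI denotes the concentration required for complete inhibition of growth.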 A value given as a limit tells only on which side of the number the result lay.

Test systems include NCI-H460 lung; MOLT-4 leukemia; HCC-2998 colon; CAKI-1 renal; SF-539 CNS; SN12C renal; NCI-H522 lung; HOP-62 NSCLC; SK-OV-3 ovarian; KM12 colon.
Holding throughout (test): NCI tumour cell line growth inhibition, 48 h

`COc1cc(CCC[P+](c2ccccc2)(c2ccccc2)c2ccccc2)c(OC)c2c1OCO2`: the GI50 was 1810 nM in the experiment with NCI-H460 lung; 3330 nM in the experiment on MOLT-4 leukemia; 2.21 µM in the experiment on HCC-2998 colon; 2420 nM in the experiment on CAKI-1 renal; 2310 nM in the experiment with SF-539 CNS; 2560 nM in the experiment with SN12C renal. Also, the GI50 in the experiment with NCI-H522 lung is 1430 nM; with HOP-62 NSCLC it was 2910 nM; in the experiment on SK-OV-3 ovarian it was 2020 nM; in the experiment on KM12 colon it was 828 nM. Further, the TGI is 5.58 µM in the experiment on NCI-H460 lung; 18.9 µM in the experiment with MOLT-4 leukemia; 13.3 µM with HCC-2998 colon; 7.18 µM with CAKI-1 renal; 12.6 µM in the experiment on SF-539 CNS; 10.5 µM in the experiment with SN12C renal. Further, the TGI worked out at 12.1 µM in the experiment on NCI-H522 lung, 11.3 µM with HOP-62 NSCLC, 6.41 µM with SK-OV-3 ovarian and 6.59 µM with KM12 colon.

For `CCOC(=O)c1ccc(-n2cnc(-c3ccc([N+](=O)[O-])cc3)c2)cc1`, the TGI in the experiment on NCI-H460 lung, with MOLT-4 leukemia, in the experiment with HCC-2998 colon, in the experiment on CAKI-1 renal, in the experiment with SF-539 CNS and in the experiment with SN12C renal was greater than 100 µM throughout. In addition, the TGI was 36 µM in the experiment on NCI-H522 lung, greater than 100 µM in the experiment on HOP-62 NSCLC, greater than 100 µM in the experiment with SK-OV-3 ovarian and greater than 100 µM in the experiment with KM12 colon.

As for `CCOC(=O)C12CCCC1(O)N(NC(=O)OC)C(C)=C2C(=O)OC` (centres undefined), the TGI with NCI-H460 lung, in the experiment with MOLT-4 leukemia, with HCC-2998 colon, with CAKI-1 renal, in the experiment with SF-539 CNS and in the experiment with SN12C renal was greater than 100 µM in each case. Further, the TGI with NCI-H522 lung is greater than 100 µM; in the experiment with HOP-62 NSCLC it was greater than 100 µM; in the experiment on SK-OV-3 ovarian, greater than 100 µM; with KM12 colon, greater than 10 µM.

In the case of `COC(=O)/C=C1/SC(=Nc2cccc(Cl)c2)N(CCc2c[nH]c3ccc(O)cc23)C1=O`, the GI50 in the experiment on NCI-H460 lung was 2040 nM; with MOLT-4 leukemia, 1000 nM; in the experiment on HCC-2998 colon, 1.88 µM; with CAKI-1 renal, 1830 nM; in the experiment with SF-539 CNS, 1630 nM; in the experiment with SN12C renal, 1790 nM. The GI50 with NCI-H522 lung is 1630 nM; with HOP-62 NSCLC, 1900 nM; in the experiment with SK-OV-3 ovarian, 2240 nM; with KM12 colon, 1530 nM. Moreover, the TGI with NCI-H460 lung was determined as 4.1 µM; in the experiment on MOLT-4 leukemia it was 5.1 µM; in the experiment with HCC-2998 colon, 3.48 µM; with CAKI-1 renal, 3.67 µM; in the experiment with SF-539 CNS, 3.24 µM; in the experiment with SN12C renal it was 3.67 µM. For the same compound, the TGI was 3.4 µM in the experiment with NCI-H522 lung, 3.93 µM in the experiment with HOP-62 NSCLC, 5.01 µM in the experiment on SK-OV-3 ovarian and 3.29 µM in the experiment with KM12 colon.

Take `COc1cc(-n2ccnc2-c2ccc3ccccc3c2)cc(OC)c1OC`: the GI50 is 37.3 nM in the experiment with NCI-H460 lung; 284 nM in the experiment with MOLT-4 leukemia; less than 0.0318 µM in the experiment on HCC-2998 colon; 85.3 nM with CAKI-1 renal; 99 nM with SF-539 CNS; 1640 nM in the experiment with SN12C renal. For the same compound, the GI50 with NCI-H522 lung is less than 17.5 nM; with HOP-62 NSCLC, 89.5 nM; in the experiment on SK-OV-3 ovarian, 130 nM; in the experiment with KM12 colon it was less than 19.8 nM. Moreover, the TGI with NCI-H460 lung is 14.7 µM; in the experiment on MOLT-4 leukemia it was greater than 50.9 µM; in the experiment with HCC-2998 colon, 0.199 µM; in the experiment on CAKI-1 renal it was greater than 75.3 µM; in the experiment on SF-539 CNS, 2.06 µM; in the experiment on SN12C renal it was greater than 59 µM. The TGI was 13.2 µM with NCI-H522 lung, 26 µM with HOP-62 NSCLC, 24.7 µM in the experiment with SK-OV-3 ovarian and 18.9 µM in the experiment with KM12 colon.

In the case of `Cc1cccc(-c2nnc3s/c(=C\c4ccc(N(C)C)cc4)c(=O)n23)c1`, the TGI with NCI-H460 lung, in the experiment on MOLT-4 leukemia, in the experiment with HCC-2998 colon, in the experiment with CAKI-1 renal, in the experiment with SF-539 CNS and in the experiment on SN12C renal was greater than 100 µM throughout. For the same compound, the TGI in the experiment with NCI-H522 lung, in the experiment with HOP-62 NSCLC, in the experiment on SK-OV-3 ovarian and with KM12 colon was greater than 100 µM in each case.

Regarding `O=C(O)Cc1cccc2c(=O)cc(-c3ccccc3)oc12`, the GI50 is 545000 nM with NCI-H460 lung; 288000 nM in the experiment with MOLT-4 leukemia; greater than 1000 µM in the experiment with HCC-2998 colon; > 46800 nM and 163000 nM with CAKI-1 renal; 398000 nM in the experiment on SF-539 CNS; 508000 nM with SN12C renal. Moreover, the figures for the GI50 with NCI-H522 lung, in the experiment with SK-OV-3 ovarian and in the experiment on KM12 colon were 285000 nM, greater than 813000 nM and 334000 nM, respectively. Besides, the TGI with NCI-H460 lung is greater than 1000 µM; in the experiment on MOLT-4 leukemia it was greater than 824 µM; in the experiment on HCC-2998 colon, greater than 1000 µM; with CAKI-1 renal, > 72 µM and 194 µM and 420 µM; in the experiment on SF-539 CNS, > 250 µM and 838 µM; in the experiment with SN12C renal, 250 µM and > 964 µM. The TGI was 250 µM and > 773 µM in the experiment on NCI-H522 lung; 250 µM and > 1000 µM in the experiment on HOP-62 NSCLC; 250 µM and > 1000 µM with SK-OV-3 ovarian; 250 µM and > 889 µM in the experiment with KM12 colon.

In the case of `CCN1CCN(CCNc2nccc(-c3c(-c4ccc(F)c(O)c4)nc4occn34)n2)S1(=O)=O`, the GI50 in the experiment on NCI-H460 lung is 4920 nM; with MOLT-4 leukemia it was 2560 nM; with HCC-2998 colon it was 6.19 µM; in the experiment on CAKI-1 renal it was 4300 nM; with SF-539 CNS, greater than 100000 nM; with SN12C renal, 4410 nM. In addition, the GI50 with NCI-H522 lung was 2930 nM; in the experiment on HOP-62 NSCLC, 5970 nM; in the experiment on SK-OV-3 ovarian, 12900 nM; in the experiment on KM12 colon, 3720 nM. Moreover, the TGI with NCI-H460 lung, in the experiment on MOLT-4 leukemia, with HCC-2998 colon, with CAKI-1 renal, in the experiment with SF-539 CNS and in the experiment with SN12C renal was greater than 100 µM each time. Further, the TGI in the experiment with NCI-H522 lung, in the experiment on HOP-62 NSCLC, in the experiment with SK-OV-3 ovarian and in the experiment with KM12 colon was greater than 100 µM each time.

`Cn1ncc(Cl)c1-c1cc(C(=O)N[C@H](CN)Cc2cccc(F)c2)sc1Cl`: the GI50 with NCI-H460 lung was 406 nM and 568 nM; in the experiment on MOLT-4 leukemia it was 196 nM and 123 nM; with HCC-2998 colon, 0.743 µM and 1.54 µM; with CAKI-1 renal, 1450 nM and 3030 nM; with SF-539 CNS, 313 nM and 325 nM; in the experiment on SN12C renal it was 1860 nM and 2040 nM. Besides, the GI50 in the experiment on NCI-H522 lung is 1410 nM and 6340 nM; with HOP-62 NSCLC, 1110 nM and 3130 nM; in the experiment with SK-OV-3 ovarian, 242 nM and 340 nM; in the experiment with KM12 colon, 467 nM and 835 nM. Also, the TGI in the experiment with NCI-H460 lung was > 10 µM and 13.3 µM; in the experiment with MOLT-4 leukemia it was 3.13 µM and 3.51 µM; in the experiment on HCC-2998 colon it was 2.67 µM and 4.87 µM; with CAKI-1 renal, > 9.48 µM and 15.5 µM; in the experiment on SF-539 CNS, 3.22 µM and 4.64 µM; with SN12C renal, > 10 µM and 19.3 µM. Moreover, the TGI in the experiment with NCI-H522 lung was > 5.8 µM and 20.3 µM; with HOP-62 NSCLC it was > 10 µM and 16.6 µM; in the experiment on SK-OV-3 ovarian, 4.58 µM and 7.05 µM; in the experiment on KM12 colon it was 3.51 µM and 8.31 µM.

In the case of `CC1=CCC2CC1C(C(=O)c1c[nH]c3ccccc13)=NC2(C)C` (centres undefined), the TGI in the experiment with NCI-H460 lung, in the experiment with MOLT-4 leukemia, with HCC-2998 colon, in the experiment on CAKI-1 renal, with SF-539 CNS and with SN12C renal was greater than 100 µM throughout. Besides, the TGI with NCI-H522 lung, in the experiment on HOP-62 NSCLC, with SK-OV-3 ovarian and with KM12 colon was greater than 100 µM throughout.

With `COc1cc2nc(N3CCCN(C)CC3)nc(NC3CCN(Cc4ccccc4)CC3)c2cc1OC`, the GI50 in the experiment with NCI-H460 lung is 2190 nM; in the experiment with MOLT-4 leukemia, 1800 nM; in the experiment on HCC-2998 colon it was 2.71 µM; in the experiment on CAKI-1 renal, 1630 nM; in the experiment on SF-539 CNS, 1680 nM; in the experiment with SN12C renal, 6680 nM. The GI50 was 2020 nM in the experiment on NCI-H522 lung, 3230 nM in the experiment on HOP-62 NSCLC, 3190 nM in the experiment with SK-OV-3 ovarian and 3070 nM with KM12 colon. Besides, the TGI in the experiment with NCI-H460 lung came out at 4.81 µM; in the experiment with MOLT-4 leukemia, 6.25 µM; in the experiment with HCC-2998 colon, 8.76 µM; with CAKI-1 renal, 3.71 µM; with SF-539 CNS, 3.33 µM; in the experiment on SN12C renal, 25 µM. In addition, the TGI is 4.22 µM with NCI-H522 lung, 10.6 µM in the experiment on HOP-62 NSCLC, 10.8 µM with SK-OV-3 ovarian and 9.82 µM in the experiment on KM12 colon.

`COc1ccccc1C#Cc1ccccc1C#Cc1ccc(OCCCCCCOc2ccccc2C#Cc2ccccc2C#Cc2ccccc2OC)cc1`: the GI50 in the experiment with NCI-H460 lung was greater than 100000 nM; in the experiment with MOLT-4 leukemia it was greater than 100000 nM; with HCC-2998 colon, greater than 100 µM; in the experiment on CAKI-1 renal it was greater than 100000 nM; in the experiment with SF-539 CNS, greater than 100000 nM; with SN12C renal, greater than 100000 nM. In addition, the GI50 in the experiment with NCI-H522 lung, in the experiment with HOP-62 NSCLC, in the experiment on SK-OV-3 ovarian and in the experiment with KM12 colon was greater than 100000 nM each time. The TGI in the experiment on NCI-H460 lung, with MOLT-4 leukemia, with HCC-2998 colon, with CAKI-1 renal, in the experiment with SF-539 CNS and in the experiment on SN12C renal was greater than 100 µM each time. The TGI in the experiment on NCI-H522 lung, in the experiment on HOP-62 NSCLC, in the experiment on SK-OV-3 ovarian and in the experiment with KM12 colon was greater than 100 µM in each case.

(Values after PubChem BioAssay (NCI).)
